The values below come from patent US12091426B2, “Bifunctional degraders of hematopoietic progenitor kinase and therapeutic uses thereof” (Nurix Therapeutics, Inc., priority 2021, dated 2024).

One may read the DC50 as the concentration giving 50% degradation. As usually defined, the Dmax is the largest share of the target that was removed.

The target of this test is T1, HPK1 (Homo sapiens, UniProt Q92918).
T1 construct: A HiBiT tag was introduced by CRISPR on the N terminus of HPK1 in Jurkat cells; host or cells: Jurkat cells (ATCC TIB-152), monoclonal line with CRISPR knock-in of HiBiT at the endogenous HPK1 locus
The test can be described thus: HPK1 Cellular HiBit Degradation Assay. To be noted: HiBiT HPK1 Jurkat cells, 24 hrs; for DC50: concentration at which 50% of HPK1 was remaining, read-out: DC50 Category; for Dmax: Jurkat, read-out: Dmax Category. Type of test: cell-based. The procedure, abridged:
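Jurkat cells with CRISPR knock-in N-terminal HiBiT-HPK1 were treated with CTMs (11-point, 3.16-fold, 10 uM to 0.1 nM final) for 24 hrs at 37° C. HiBiT lytic luminescence, with parental Jurkat as background and DMSO as 100%, gave % HPK1 remaining; four-parameter fit yielded DC50 and Dmax (100 minus lowest % remaining).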

Where [1] appears, read: maximum degradation vs DMSO vehicle control.

T1 sequence (Q92918 whole entry): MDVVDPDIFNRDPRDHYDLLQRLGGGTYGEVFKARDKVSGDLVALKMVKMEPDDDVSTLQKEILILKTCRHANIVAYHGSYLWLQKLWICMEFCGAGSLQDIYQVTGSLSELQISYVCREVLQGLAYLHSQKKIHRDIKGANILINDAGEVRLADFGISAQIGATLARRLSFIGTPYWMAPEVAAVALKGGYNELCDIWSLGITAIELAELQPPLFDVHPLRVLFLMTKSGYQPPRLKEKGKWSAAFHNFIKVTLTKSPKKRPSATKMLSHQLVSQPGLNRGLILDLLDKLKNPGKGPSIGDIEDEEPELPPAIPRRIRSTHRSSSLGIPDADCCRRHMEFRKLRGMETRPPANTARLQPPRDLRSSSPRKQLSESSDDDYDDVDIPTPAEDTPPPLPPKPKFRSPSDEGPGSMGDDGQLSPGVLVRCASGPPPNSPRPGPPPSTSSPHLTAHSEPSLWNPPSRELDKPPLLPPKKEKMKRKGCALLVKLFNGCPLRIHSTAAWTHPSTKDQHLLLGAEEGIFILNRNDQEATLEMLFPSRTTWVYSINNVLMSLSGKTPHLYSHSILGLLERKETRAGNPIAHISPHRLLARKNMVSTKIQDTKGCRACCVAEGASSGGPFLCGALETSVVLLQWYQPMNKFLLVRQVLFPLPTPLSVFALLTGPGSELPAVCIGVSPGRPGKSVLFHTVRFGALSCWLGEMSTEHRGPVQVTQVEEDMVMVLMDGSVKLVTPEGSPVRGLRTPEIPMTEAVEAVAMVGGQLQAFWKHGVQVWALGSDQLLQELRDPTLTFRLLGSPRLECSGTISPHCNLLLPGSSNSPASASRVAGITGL

In the case of `CC(C)n1cnc2cc(-c3ccc4c(c3)N([C@H]3C[C@@H](N5CCCCC5)C3)C(=O)C43CCN(C(=O)C4CCC5(CCN(C(=O)C6CCN(c7ccc(C8CCC(=O)NC8=O)cn7)CC6)CC5)C4)CC3)nc(NC3CC3)c21` (mixture of isomers) [Example 294, (3RS)-3-(6-{4-[2-({6-[4-(cyclopropylamino)-3-(propan-2-yl)-3H-imidazo[4,5-c]pyridin-6-yl]-2-oxo-1-[(1S,3S)-3-(piperidin-1-yl)cyclobutyl]-1,2-dihydrospiro[indole-3,4′-piperidin]-1′-yl}carbonyl)-8-azaspiro[4.5]decane-8-carbonyl]piperidin-1-yl}pyridin-3-yl)piperidine-2,6-dione], the DC50 fell in the range of 100 to 500 nM. Further, under setting [1], the Dmax was 70 to 85%.

With `CC(C)n1cnc2cc(-c3ccc4c(c3)N([C@H]3C[C@@H](N5CCCCC5)C3)C(=O)C43CCN(C(=O)C4CCC5(CC4)CCN(C(=O)C4CCN(c6ccc(C7CCC(=O)NC7=O)cn6)CC4)CC5)CC3)nc(NC3CC3)c21` (mixture of isomers) [Example 295, (3RS)-3-(6-{4-[9-({6-[4-(cyclopropylamino)-3-(propan-2-yl)-3H-imidazo[4,5-c]pyridin-6-yl]-2-oxo-1-[(1S,3S)-3-(piperidin-1-yl)cyclobutyl]-1,2-dihydrospiro[indole-3,4′-piperidin]-1′-yl}carbonyl)-3-azaspiro[5.5]undecane-3-carbonyl]piperidin-1-yl}pyridin-3-yl)piperidine-2,6-dione], the DC50 lay within 100 to 500 nM. The Dmax under setting [1] was 70 to 85%.

As for `CC(C)n1cnc2cc(-c3ccc4c(c3)N([C@H]3C[C@@H](N5CCCCC5)C3)C(=O)C43CCN(C(=O)C[C@H]4CCCN(C(=O)C5CCN(c6ccc(C7CCC(=O)NC7=O)cn6)CC5)C4)CC3)nc(NC3CC3)c21` (mixture of isomers) [Example 296, (3RS)-3-(6-{4-[(3R)-3-(2-{6-[4-(cyclopropylamino)-3-(propan-2-yl)-3H-imidazo[4,5-c]pyridin-6-yl]-2-oxo-1-[(1S,3S)-3-(piperidin-1-yl)cyclobutyl]-1,2-dihydrospiro[indole-3,4′-piperidin]-1′-yl}-2-oxoethyl)piperidine-1-carbonyl]piperidin-1-yl}pyridin-3-yl)piperidine-2,6-dione], the DC50 was in the range of 100 to 500 nM. Under setting [1], the Dmax lay within 70 to 85%.

On to `CC(C)n1cnc2cc(-c3ccc4c(c3)N([C@H]3C[C@@H](N5CCCCC5)C3)C(=O)C43CCN(C(=O)C[C@H]4CCCN(C(=O)CC5CCN(c6ccc(C7CCC(=O)NC7=O)cn6)CC5)C4)CC3)nc(NC3CC3)c21` (mixture of isomers) [Example 297, (3RS)-3-[6-(4-{2-[(3R)-3-(2-{6-[4-(cyclopropylamino)-3-(propan-2-yl)-3H-imidazo[4,5-c]pyridin-6-yl]-2-oxo-1-[(1S,3S)-3-(piperidin-1-yl)cyclobutyl]-1,2-dihydrospiro[indole-3,4′-piperidin]-1′-yl}-2-oxoethyl)piperidin-1-yl]-2-oxoethyl}piperidin-1-yl)pyridin-3-yl]piperidine-2,6-dione], for which the DC50 fell in the range of 500 to 1000 nM. Moreover, the Dmax under setting [1] was 50 to 70%.

In the case of `CC(C)n1cnc2cc(-c3ccc4c(c3)N([C@H]3C[C@@H](N5CCCCC5)C3)C(=O)C43CCN(C(=O)C[C@@H]4CCCN(C(=O)C5CCN(c6ccc(C7CCC(=O)NC7=O)cn6)CC5)C4)CC3)nc(NC3CC3)c21` (mixture of isomers) [Example 298, (3RS)-3-(6-{4-[(3S)-3-(2-{6-[4-(cyclopropylamino)-3-(propan-2-yl)-3H-imidazo[4,5-c]pyridin-6-yl]-2-oxo-1-[(1S,3S)-3-(piperidin-1-yl)cyclobutyl]-1,2-dihydrospiro[indole-3,4′-piperidin]-1′-yl}-2-oxoethyl)piperidine-1-carbonyl]piperidin-1-yl}pyridin-3-yl)piperidine-2,6-dione], the DC50 lay in the range of 100 to 500 nM. Moreover, the Dmax under setting [1] was 50 to 70%.

`CC(C)n1cnc2cc(-c3ccc4c(c3)N([C@H]3C[C@@H](N5CCCCC5)C3)C(=O)C43CCN(C(=O)C[C@@H]4CCCN(C(=O)CC5CCN(c6ccc(C7CCC(=O)NC7=O)cn6)CC5)C4)CC3)nc(NC3CC3)c21` (mixture of isomers) [Example 299, (3RS)-3-[6-(4-{2-[(3S)-3-(2-{6-[4-(cyclopropylamino)-3-(propan-2-yl)-3H-imidazo[4,5-c]pyridin-6-yl]-2-oxo-1-[(1S,3S)-3-(piperidin-1-yl)cyclobutyl]-1,2-dihydrospiro[indole-3,4′-piperidin]-1′-yl}-2-oxoethyl)piperidin-1-yl]-2-oxoethyl}piperidin-1-yl)pyridin-3-yl]piperidine-2,6-dione]: the DC50 fell in the range of 100 to 500 nM. Besides, the Dmax under setting [1] was 70 to 85%.

With `CC(C)n1cnc2cc(-c3ccc4c(c3)N([C@H]3C[C@@H](N5CCCCC5)C3)C(=O)C43CCN(C(=O)C4(C5CCN(C(=O)C6CCN(c7ccc(C8CCC(=O)NC8=O)cn7)CC6)CC5)CCC4)CC3)nc(NC3CC3)c21` (mixture of isomers) [Example 300, (3RS)-3-[6-(4-{4-[1-({6-[4-(cyclopropylamino)-3-(propan-2-yl)-3H-imidazo[4,5-c]pyridin-6-yl]-2-oxo-1-[(1S,3S)-3-(piperidin-1-yl)cyclobutyl]-1,2-dihydrospiro[indole-3,4′-piperidin]-1′-yl}carbonyl)cyclobutyl]piperidine-1-carbonyl}piperidin-1-yl)pyridin-3-yl]piperidine-2,6-dione], the DC50 was under 100 nM. In addition, the Dmax under setting [1] lay in the range of 70 to 85%.

Consider `CC(C)n1cnc2cc(-c3ccc4c(c3)N([C@H]3C[C@@H](N5CCCCC5)C3)C(=O)C43CCN(C(=O)c4cccc(C5CCN(C(=O)C6CCN(c7ccc(C8CCC(=O)NC8=O)cn7)CC6)CC5)c4)CC3)nc(NC3CC3)c21` (mixture of isomers) [Example 301, (3RS)-3-[6-(4-{4-[3-({6-[4-(cyclopropylamino)-3-(propan-2-yl)-3H-imidazo[4,5-c]pyridin-6-yl]-2-oxo-1-[(1S,3S)-3-(piperidin-1-yl)cyclobutyl]-1,2-dihydrospiro[indole-3,4′-piperidin]-1′-yl}carbonyl)phenyl]piperidine-1-carbonyl}piperidin-1-yl)pyridin-3-yl]piperidine-2,6-dione], for which the DC50 lay in the range of 100 to 500 nM. Further, the Dmax under setting [1] is 50 to 70%.

On to `CC(C)n1cnc2cc(-c3ccc4c(c3)N([C@H]3C[C@@H](N5CCCCC5)C3)C(=O)C43CCN(C(=O)c4ccc(C5CCN(C(=O)C6CCN(c7ccc(C8CCC(=O)NC8=O)cn7)CC6)CC5)cc4)CC3)nc(NC3CC3)c21` (mixture of isomers) [Example 302, (3RS)-3-[6-(4-{4-[4-({6-[4-(cyclopropylamino)-3-(propan-2-yl)-3H-imidazo[4,5-c]pyridin-6-yl]-2-oxo-1-[(1S,3S)-3-(piperidin-1-yl)cyclobutyl]-1,2-dihydrospiro[indole-3,4′-piperidin]-1′-yl}carbonyl)phenyl]piperidine-1-carbonyl}piperidin-1-yl)pyridin-3-yl]piperidine-2,6-dione], for which the DC50 lay in the range of 100 to 500 nM. Moreover, under setting [1], the Dmax was 70 to 85%.

For `CC(C)n1cnc2cc(-c3ccc4c(c3)N([C@H]3C[C@@H](N5CCCCC5)C3)C(=O)C43CCN(C(=O)C4CC45CCN(C(=O)C4CCN(c6ccc(C7CCC(=O)NC7=O)cn6)CC4)C5)CC3)nc(NC3CC3)c21` (mixture of isomers) [Example 303, (3RS)-3-(6-{4-[1-({6-[4-(cyclopropylamino)-3-(propan-2-yl)-3H-imidazo[4,5-c]pyridin-6-yl]-2-oxo-1-[(1S,3S)-3-(piperidin-1-yl)cyclobutyl]-1,2-dihydrospiro[indole-3,4′-piperidin]-1′-yl}carbonyl)-5-azaspiro[2.4]heptane-5-carbonyl]piperidin-1-yl}pyridin-3-yl)piperidine-2,6-dione], the DC50 is 500 to 1000 nM. In addition, the Dmax under setting [1] was in the range of 50 to 70%.

In the case of `CC(C)n1cnc2cc(-c3ccc4c(c3)N([C@H]3C[C@@H](N5CCCCC5)C3)C(=O)C43CCN(C(=O)C4(C)CCN(C(=O)C5CCN(c6ccc([C@H]7CCC(=O)NC7=O)cn6)CC5)CC4)CC3)nc(NC3CC3)c21` (single isomer, unassigned) [Example 212], the DC50 is under 100 nM. In addition, under setting [1], the “Dmax Category” value is listed as “B (B: >70%-<85%)”.

On to `CC(C)n1cnc2cc(-c3ccc4c(c3)N([C@H]3C[C@@H](N5CCCCC5)C3)C(=O)C43CCN(C(=O)[C@@H]4CCN(C(=O)[C@H]5CC[C@H](Nc6ccc(C7CCC(=O)NC7=O)cc6)CC5)C4)CC3)nc(Nc3ccncc3F)c21` (stereo partly drawn) [Example 4, 3-(4-(((1R,4R)-4-((R)-3-(6-(4-((3-fluoropyridin-4-yl)amino)-3-isopropyl-3H-imidazo[4,5-c]pyridin-6-yl)-2-oxo-1-((1S,3S)-3-(piperidin-1-yl)cyclobutyl)spiro[indoline-3,4′-piperidine]-1′-carbonyl)pyrrolidine-1-carbonyl)cyclohexyl)amino)phenyl)piperidine-2,6-dione], for which the DC50 was under 100 nM. Besides, the Dmax under setting [1] was over 85%.

`CC(C)n1cnc2cc(-c3ccc4c(c3)N([C@H]3C[C@@H](N5CCCCC5)C3)C(=O)C43CCN(C(=O)[C@@H]4CCN(C(=O)[C@H]5CC[C@H](Oc6ccc(C7CCC(=O)NC7=O)cc6)CC5)C4)CC3)nc(NC3CC3)c21` (stereo partly drawn) [Example 13, 3-(4-{[(1R,4R)-4-[(3R)-3-({6-[4-(cyclopropylamino)-3-(propan-2-yl)-3H-imidazo[4,5-c]pyridin-6-yl]-2-oxo-1-[(1S,3S)-3-(piperidin-1-yl)cyclobutyl]-1,2-dihydrospiro[indole-3,4′-piperidin]-1′-yl}carbonyl)pyrrolidine-1-carbonyl]cyclohexyl]oxy}phenyl)piperidine-2,6-dione]: the DC50 is under 100 nM. Besides, under setting [1], the Dmax is over 85%.
